Data published in publication PMC2948407 (Journal of the American Chemical Society, 2010).

Target: T1, HasAp (Pseudomonas aeruginosa, UniProt O69756, H32A)
T1 sequence (O69756 1-184 H32A): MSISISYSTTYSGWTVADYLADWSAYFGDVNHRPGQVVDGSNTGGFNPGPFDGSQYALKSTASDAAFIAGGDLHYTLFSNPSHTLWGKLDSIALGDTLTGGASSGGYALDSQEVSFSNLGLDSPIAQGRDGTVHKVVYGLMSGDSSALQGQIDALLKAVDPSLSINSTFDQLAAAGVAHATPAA
Test: UV-vis titration
Type: binding

For c1c[nH]cn1 [imidazole], the Kd was 4.7 mM.
